Patent US11753413B2, “Substituted pyrrolo[2,1-f][1,2,4]triazine compounds as JAK2 V617F inhibitors” (Incyte Corporation, priority 2020, dated 2023)
pIC50: −log10 of the molar value.

How the values were obtained:
[1] = target: T1, catalytic domain (JH1) of human JAK2 (Homo sapiens, UniProt O60674); experiment: JAK2 HTRF Enzyme Activity Assay; type: biochemical; parameters: JH1, amino acids 808-1132; His (N); purchased BPS Bioscience 40450; host or cells: baculovirus expression system; conditions: ATP 30 μM or 1 mM (not given), read-out: ENZ
Description: Example D. JAK2 HTRF Enzyme Activity Assay
JAK2 enzyme activity assays utilize catalytic domain (JH1, amino acids 808-1132) of human JAK2 expressed as N-terminal His-tagged protein in a baculovirus expression system (BPS Bioscience, Catalog #40450). The assays was conducted in black 384-well polystyrene plates in a final reaction volume of 20 μL. JAK2 (0.015 nM) was incubated with compounds (100 nL serially diluted in DMSO) in the presence of ATP (30 μM or 1 mM) and 500 nM Biotin-labeled EQEDEPEGDYFEWLE (SEQ ID NO.: 1) peptide (BioSource International, custom synthesis) in assay buffer (50 mM Tris, pH=7.5, 10 mM MgC2, 0.01% Brij-35, 0.1% BSA, 1 mM EGTA, 5% Glycerol and 5 mM DTT) for 60 minutes at 25° C. The reactions were stopped by the addition of 10 μL of detection buffer (50 mM Tris, pH 7.8, 0.5 mg/mL BSA, 150 mM NaCl), supplemented with EDTA, LANCE Eu-W1024 anti-phosphotyrosine (PY20), (PerkinElmer, Catalog #AD0067) and Streptavidin SureLight APC (PerkinElmer Catalog #CR130-100), for a final concentration of 15 mM, 1.5 nM and 75 nM, respectively. HTRF signals were read after 30 minutes incubation at room temperature on a PHERAstar FS plate reader (BMG LABTECH). Data was analyzed with IDBS XLfit and GraphPad Prism 5.0 software using a four parameter dose response curve to determine IC50 for each compound.
Target sequence in this assay (O60674 808-1132): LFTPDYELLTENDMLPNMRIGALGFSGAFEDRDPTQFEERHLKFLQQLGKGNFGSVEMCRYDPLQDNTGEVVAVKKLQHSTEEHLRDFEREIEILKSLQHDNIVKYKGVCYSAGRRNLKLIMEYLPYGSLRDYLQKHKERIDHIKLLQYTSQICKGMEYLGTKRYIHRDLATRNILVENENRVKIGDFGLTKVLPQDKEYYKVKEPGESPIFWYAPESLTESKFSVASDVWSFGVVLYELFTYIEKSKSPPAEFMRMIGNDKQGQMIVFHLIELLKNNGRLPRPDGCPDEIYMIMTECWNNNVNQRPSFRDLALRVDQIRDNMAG

[2] = target: T1, catalytic domain (JH1) of human JAK2; experiment: JAK2 LanthaScreen JH1 Binding Assay; parameters: JH1, amino acids 826-1132; FLAG (N); purchased Carna Biosciences 08-445-20N; host or cells: baculovirus expression system; conditions: read-out: JH1 BIND
Description: Example A. JAK2 LanthaScreen JH1 Binding Assay
JAK2 JH1 binding assay utilizes catalytic domain (JH1, amino acids 826-1132) of human JAK2 expressed as N-terminal FLAG-tagged, biotinylated protein in a baculovirus expression system (Carna Biosciences, Product #08-445-20N). The assay was conducted in black 384-well polystyrene plates in a final reaction volume of 20 μL. JAK2 JH1 (1.5 nM) was incubated with compounds (100 nL serially diluted in DMSO) in the presence of 50 nM fluorescent JAK2-JH1 tracer and 0.5 nM Streptavidin-Tb cryptate (Cisbio Part #610SATLB) in assay buffer (50 mM Tris, pH=7.5, 10 mM MgCl2, 0.01% Brij-35, 0.1% BSA, 1 mM EGTA, 5% Glycerol and 5 mM DTT). Non-specific binding was accessed in the presence of 2 mM ATP. After incubation for 2 hours at 25° C., LanthaScreen signals were read on a PHERAstar FS plate reader (BMG LABTECH). Data was analyzed with IDBS XLfit and GraphPad Prism 5.0 software using a four parameter dose response curve to determine IC50 for each compound.
Target sequence in this assay (O60674 826-1132): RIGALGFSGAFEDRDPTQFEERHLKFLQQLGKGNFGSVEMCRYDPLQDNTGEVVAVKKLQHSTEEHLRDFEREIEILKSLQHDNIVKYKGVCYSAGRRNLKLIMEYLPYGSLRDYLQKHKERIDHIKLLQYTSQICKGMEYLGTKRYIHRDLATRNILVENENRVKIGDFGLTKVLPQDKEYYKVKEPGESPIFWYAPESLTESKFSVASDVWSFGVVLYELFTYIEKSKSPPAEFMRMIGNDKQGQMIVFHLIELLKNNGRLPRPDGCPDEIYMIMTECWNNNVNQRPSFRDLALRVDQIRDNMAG

[3] = target: T2, pseudo-kinase domain (JH2) of human Wild Type JAK2 (Homo sapiens, UniProt O60674, F794H/W659A/W777A); experiment: JAK2 LanthaScreen JH2-WT Binding Assay; conditions: read-out: JH2 BIND WT
T2 construct: JH2, amino-acids 536-812 with 3 surface mutations; His (C); purchased BPS Bioscience 79463; host or cells: baculovirus expression system
Description: Example B. JAK2 LanthaScreen JH2-WT Binding Assay
(§1) JAK2 JH2-WT binding assay utilizes pseudo-kinase domain (JH2, amino-acids 536-812 with 3 surface mutations W659A, W777A, F794H) of human Wild Type JAK2 expressed as C-terminal His-Avi-tagged, biotinylated protein in a baculovirus expression system (BPS Bioscience, Catalog #79463). The assay was conducted in black 384-well polystyrene plates in a final reaction volume of 20 μL. JAK2 JH2-WT (0.145 nM) was incubated with compounds (100 nL serially diluted in DMSO) in the presence of 50 nM Fluorescent JAK2-JH2 Tracer (MedChem Express Catalog #HY-102055) and 0.25 nM Streptavidin-Tb cryptate (Cisbio Part #610SATLB) in assay buffer (50 mM Tris, pH=7.5, 10 mM MgCl2, 0.01% Brij-35, 0.1% BSA, 1 mM EGTA, 5% Glycerol and 5 mM DTT). Non-specific binding was accessed in the presence of 2 mM ATP. After incubation for 1 hour at 25° C., LanthaScreen signals were read on a PHERAstar FS plate reader (BMG LABTECH). Data was analyzed with IDBS XLfit and GraphPad Prism 5.0 software using a four parameter dose response curve to determine IC50 for each compound.

[4] = target: T3, pseudo-kinase domain (JH2) of human V617F mutant JAK2 (Homo sapiens, UniProt O60674, F794H/V617F/W659A/W777A); experiment: JAK2 LanthaScreen JH2-V617F Binding Assay; conditions: read-out: JH2 BIND V617F
T3 construct: JH2, amino-acids 536-812 with 3 surface mutations; His (C); purchased BPS Bioscience 79498; host or cells: baculovirus expression system
Description: Example C. JAK2 LanthaScreen JH2-V617F Binding Assay
as §1, with “JH2-V617F” for “JH2-WT”, “V617F mutant” for “Wild Type”, “#79498).” for “#79463).”, “JH2-V617F (0.26” for “JH2-WT (0.145”

T2 sequence (O60674 536-812 W659A/W777A/F794H): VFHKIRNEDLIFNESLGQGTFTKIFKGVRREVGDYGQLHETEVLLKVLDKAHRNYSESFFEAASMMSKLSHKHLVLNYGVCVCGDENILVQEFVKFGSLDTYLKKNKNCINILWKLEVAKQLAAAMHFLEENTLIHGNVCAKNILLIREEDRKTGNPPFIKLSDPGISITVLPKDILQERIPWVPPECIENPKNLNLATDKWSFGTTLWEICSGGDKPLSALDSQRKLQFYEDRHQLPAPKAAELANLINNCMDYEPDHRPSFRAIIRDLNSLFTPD
T3 sequence (O60674 536-812 V617F/W659A/W777A/F794H): as the sequence (O60674 536-812 W659A/W777A/F794H) above, with V82F counted along it

SMILES	pIC50 [1]	pIC50 [2]	pIC50 [3]	pIC50 [4]
CCS(=O)(=O)Nc1ccc(Cn2cc(-c3ccn4nc(NC(=O)C5CC5)nc(Nc5cccc(C(F)(F)F)c5OC)c34)cn2)cc1 [Example 1, N-(5-(1-(4-(Ethylsulfonamido)benzyl)-1H-pyrazol-4-yl)-4-((2-methoxy-3-(trifluoromethyl)phenyl)amino)pyrrolo[2,1-f][1,2,4]triazin-2-yl)cyclopropanecarboxamide]	< 5.00	< 5.00	≥ 7.00	≥ 7.00
COc1c(Nc2nc(NC(=O)C3CC3)nn3ccc(-c4cnn(Cc5ccc(NS(=O)(=O)C6CC6)cc5)c4)c23)cccc1C(F)(F)F [Example 2, N-(5-(1-(4-(Cyclopropanesulfonamido)benzyl)-1H-pyrazol-4-yl)-4-((2-methoxy-3-(trifluoromethyl)phenyl)amino)pyrrolo[2,1-f][1,2,4]triazin-2-yl)cyclopropanecarboxamide]	< 5.00	< 5.00	≥ 7.00	≥ 7.00
CCS(=O)(=O)Nc1ccc(Cn2cc(-c3ccn4nc(NC(=O)C5CC5)nc(Nc5cccc(-c6ncn(C)n6)c5OC)c34)cn2)cc1 [Example 3, N-(5-(1-(4-(Ethylsulfonamido)benzyl)-1H-pyrazol-4-yl)-4-((2-methoxy-3-(1-methyl-1H-1,2,4-triazol-3-yl)phenyl)amino)pyrrolo[2,1-f][1,2,4]triazin-2-yl)cyclopropanecarboxamide]	< 5.00	< 5.00	≥ 7.00	6.30 to 7.00
COc1c(Nc2nc(NC(=O)C3CC3)nn3ccc(-c4cnn(Cc5ccc(NS(C)(=O)=O)cc5)c4)c23)cccc1-c1ncn(C)n1 [Example 4, N-(4-((2-Methoxy-3-(1-methyl-1H-1,2,4-triazol-3-yl)phenyl)amino)-5-(1-(4-(methylsulfonamido)benzyl)-1H-pyrazol-4-yl)pyrrolo[2,1-f][1,2,4]triazin-2-yl)cyclopropanecarboxamide]	< 5.00	< 5.00	6.30 to 7.00	6.30 to 7.00
COc1c(Nc2nc(NC(=O)C3CC3)nn3ccc(-c4cnn(Cc5cccnc5)c4)c23)cccc1C(F)(F)F [Example 5, N-(4-((2-Methoxy-3-(trifluoromethyl)phenyl)amino)-5-(1-(pyridin-3-ylmethyl)-1H-pyrazol-4-yl)pyrrolo[2,1-f][1,2,4]triazin-2-yl)cyclopropanecarboxamide]	< 5.00	< 5.00	5.00 to 6.00	5.00 to 6.00
COc1c(Nc2nc(NC(=O)C3CC3)nn3ccc(-c4cnn(Cc5ccc(C(=O)O)cc5)c4)c23)cccc1C(F)(F)F [Example 6, 4-((4-(2-(Cyclopropanecarboxamido)-4-((2-methoxy-3-(trifluoromethyl)phenyl)amino)pyrrolo[2,1-f][1,2,4]triazin-5-yl)-1H-pyrazol-1-yl)methyl)benzoic acid]	5.00 to 6.00	5.00 to 6.00	≥ 7.00	≥ 7.00
